Patent US12116362B2, “Monocyclic compounds useful as GPR120 modulators” (Valo Health, Inc., priority 2016, dated 2024)

How the values were obtained:
[1] = biological target: T1, human GPR120 (Homo sapiens, UniProt Q5NUL3); assay: Human GPR120 Calcium-Release Assay (aequorin luminescence, CHO-K1 cells); type: cell-based; conditions: pEC50=−log(EC50) from curve fit; short variant of human GPR120 in CHO-K1 with Gα16 and apoaequorin; read-out: Ca2+ pEC50 (converted)
T1 construct: expressed in transfected cells; host or cells: CHO-K1 coexpressing Gα16 and mitochondrial apoaequorin
T1 sequence (Q5NUL3 1-361): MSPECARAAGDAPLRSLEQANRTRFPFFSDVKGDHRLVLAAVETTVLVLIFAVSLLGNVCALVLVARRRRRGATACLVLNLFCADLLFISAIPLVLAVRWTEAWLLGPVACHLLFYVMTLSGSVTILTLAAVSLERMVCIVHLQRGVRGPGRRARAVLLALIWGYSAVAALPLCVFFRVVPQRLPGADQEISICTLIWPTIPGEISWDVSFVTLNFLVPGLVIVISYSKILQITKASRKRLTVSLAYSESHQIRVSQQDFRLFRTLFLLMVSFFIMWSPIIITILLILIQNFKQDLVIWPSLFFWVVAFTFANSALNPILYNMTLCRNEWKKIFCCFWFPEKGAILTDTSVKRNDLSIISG
Source text: This in vitro assay tests compounds' ability to activate heterologously expressed human GPR120 via G-protein coupling leading to generation of inositol 1,4,5-triphosphate and mobilization of intracellular calcium. This functional cellular assay is based on the luminescence of mitochondrial aequorin following intracellular Ca^2+ release. Aequorin is a photoprotein isolated from the jellyfish Aequorea victoria. The active protein is formed in the presence of molecular oxygen from apoaequorin and its cofactor coelenterazine. Binding of Ca^2+ to the active protein induces a conformational change, resulting in oxidation of coelenterazine and subsequent blue luminescence.
The short variant of the human GPR120 receptor (GenBank accession Number AAI01176) was stably expressed in a CHO-K1 cell line coexpressing Gα16 and mitochondrial apoaequorin.
Cells were grown to mid-log phase in culture media without antibiotics, were detached with PBS/EDTA, centrifuged and resuspended in assay buffer (DMEM-F12 medium with 15 mM HEPES pH 7.0 and 0.1% protease free BSA) at a concentration of 10^6 cells/mL. Cells were incubated at room temperature for at least 4 hours with 5 μM coelenterazine h.
Test compounds were dissolved in 100% DMSO to a concentration of 20 mM to provide stock solutions. Serial dilutions were performed from stock solutions in 100% DMSO to obtain intermediate concentrations 200-fold higher than the concentrations to be tested. Each sample was diluted 100-fold into assay buffer. 50 μl of these compound solutions were dispensed into each well of 96-well assay plates. The final concentration of compounds tested in the assay ranged from 5 nM to 100 μM. α-Linolenic acid was used as a reference compound. Each test was performed in duplicate.
To start the assay, 50 μl of cell suspension were added to each well of the assay plate. The resulting luminescence was recorded using a Hamamatsu Functional Drug Screening System 6000 (FDSS 6000), and raw data were expressed as relative light units (RLU).
(§1) To determine agonist potencies (EC50 values), non-linear least-squares curve fits of the raw data (RLU) were performed in the GraphPad Prism software package, using the 4-parameter model with variable Hill Slope:
Reported below in Table 1 are pEC50 values (pEC50=−log(EC50) from curve fit) for representative compounds of Formula I in this assay, Ca2+pEC50.

[2] = biological target: T2, human GPR120 (Homo sapiens, UniProt Q5NUL3); assay: GPR120 β-Arrestin Recruitment Assay (PathHunter, CHO-K1 cells); type: cell-based; conditions: pEC50=−log(EC50) from curve fit; CHO-K1 cells, 90 min incubation; read-out: β-Arr pEC50 (converted)
T2 construct: host or cells: CHO-K1
Source text: This in vitro assay tests compounds' ability to activate intracellular signaling via 3-Arrestin recruitment to heterologously expressed human GPR120. This functional cellular assay utilizes enzyme fragment complementation with β-galactosidlase (β-gal) as a functional reporter (DiscoveRx PathlHunter® β-Arrestin assay platform). The human (GPR120 receptor (GenBank accession Number NM_181745) was fused in frame with the small enzyme fragment ProLink™ and co-expressed in CHO-K1 cells with a fusion protein of β-Arrestin 2 and the larger, N-terminal deletion mutant of β-gal. Activation by a GPR120 agonist stimulates binding of β-arrestin to the ProLink-tagged GPCR and forces complementation of the two enzyme fragments, resulting in the formation of an active β-gal enzyme. This interaction leads to an increase in enzyme activity that can be measured using chemiluminescent PathHunter® Detection Reagents.
One day prior to the assay, cells were seeded in a total volume of 20 μl of growth medium into white walled 384-well microplates and incubated at 37° C./5% CO2 overnight. On the day of the assay, growth medium was removed and 20 μl assay buffer (HBSS+10 mM HEPES+0.1% heat-inactivated BSA) were added to each well.
Test compounds were dissolved in 100% DMSO to a concentration of 10 mM to provide stock solutions. Serial dilutions were performed from stock solutions into assay buffer to obtain intermediate concentrations of 5-fold higher than the concentrations to be tested. 5 μl of the 5× compound solutions were added to the cells and the assay plates were incubated at 37° C. for 90 minutes. The final concentration of compounds tested in the assay ranged from 1.5 nM to 100 μM. Following incubation, 12.5 μl of PathHunter® detection reagent were added to each well, and plates were incubated at room temperature for 60 minutes. Chemiluminescence was read using an EnVision plate reader (PerkinElmer), raw data were expressed as relative light units (RLU).
as §1
T2 sequence (Q5NUL3 1-377 isoform Q5NUL3-1): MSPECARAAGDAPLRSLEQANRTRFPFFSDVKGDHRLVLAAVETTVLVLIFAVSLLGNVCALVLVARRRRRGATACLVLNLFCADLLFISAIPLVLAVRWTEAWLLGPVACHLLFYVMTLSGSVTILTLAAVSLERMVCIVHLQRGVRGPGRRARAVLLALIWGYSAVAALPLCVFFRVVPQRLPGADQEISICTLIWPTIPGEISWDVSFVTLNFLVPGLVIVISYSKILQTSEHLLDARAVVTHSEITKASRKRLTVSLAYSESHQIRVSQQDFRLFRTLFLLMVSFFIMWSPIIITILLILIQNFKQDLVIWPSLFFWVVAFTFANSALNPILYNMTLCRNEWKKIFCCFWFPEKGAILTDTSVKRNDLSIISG
T2 sequence (P32121 whole entry partner): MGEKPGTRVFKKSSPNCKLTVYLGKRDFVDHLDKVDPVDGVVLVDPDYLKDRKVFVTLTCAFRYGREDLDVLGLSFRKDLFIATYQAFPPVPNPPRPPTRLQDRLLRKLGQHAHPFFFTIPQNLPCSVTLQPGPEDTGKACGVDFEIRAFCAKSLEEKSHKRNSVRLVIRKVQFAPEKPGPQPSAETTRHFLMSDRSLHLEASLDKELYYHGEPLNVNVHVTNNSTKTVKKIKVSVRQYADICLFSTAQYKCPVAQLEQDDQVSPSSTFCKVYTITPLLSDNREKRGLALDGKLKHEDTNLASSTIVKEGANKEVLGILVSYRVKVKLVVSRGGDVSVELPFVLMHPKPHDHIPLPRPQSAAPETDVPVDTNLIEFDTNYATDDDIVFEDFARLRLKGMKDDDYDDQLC
Reported below in Table 1 are pEC50 values (pEC50=−log(EC50) from curve fit) for compounds of Formula I in this assay, β-Arr pEC50 Alternatively, percent activation at a single concentration is reported.

SMILES	EC50 [1] [µM]	EC50 [2] [µM]
CCc1cc(N2Cc3ccccc3S2(=O)=O)nc(Oc2cccnc2)n1 [Compound 82]	1.26	2.51
O=S1(=O)c2ccccc2CN1c1ccnc(OC2CCCC2)n1 [Compound 60]	0.501	1.58
O=C1c2ccccc2CN1c1cccc(Oc2cccnc2)n1 [Compound 122]	0.501	> 10
Cc1cc(Oc2nccc(N3Cc4ccccc4S3(=O)=O)n2)ccc1Cl [Compound 35]	> 100	1.58
O=S1(=O)c2ccccc2CN1c1ccnc(Oc2cccc(Cl)c2)n1 [Compound 22]	> 100	1.58
O=S1(=O)c2ccccc2CN1c1ccnc(Oc2ccc(OC(F)(F)F)cc2Cl)n1 [Compound 36]	7.94	0.631
O=S1(=O)c2ccccc2CN1c1cc(C(F)(F)F)nc(Oc2cccnc2)n1 [Compound 78]	3.98	1.58
Cc1cncc(Oc2nccc(N3Cc4ccccc4S3(=O)=O)n2)c1 [Compound 19]	0.794	5.01
COc1cncc(Oc2nccc(N3Cc4ccccc4S3(=O)=O)n2)c1 [Compound 50]	6.31	5.01

More lines, now with the values ahead:

EC50 [1] [µM]	EC50 [2] [µM]	SMILES
1.58	0.794	Cc1cc(Oc2ccc(Cl)cc2)nc(N2Cc3ccccc3S2(=O)=O)n1 [Compound 87]
15.8	12.6	O=S1(=O)c2ccccc2CN1c1nccc(Oc2cccnc2)n1 [Compound 114]
0.316	1	O=S1(=O)c2ccccc2CN1c1ccnc(Oc2ccc(F)cc2)n1 [Compound 42]
> 0.1	0.398	COc1cc(Oc2ccc(F)cc2)nc(N2Cc3ccccc3S2(=O)=O)n1 [Compound 101]
